Data reported in patent US4108857A, “Imidazolylmethyl methanobenzazocines” (Sterling Drug Inc., priority 1977, dated 1978).
≈ marks a conversion by molar mass, not a printed value. Counter-ions that a name gives are not always drawn.

Columns and labels:
[1] = tested on: maximal pentylenetetrazol seizures; test: anti-maximal pentylenetetrazol seizure test in mice; format: in vivo; conditions: for ED50: Mus musculus
[2] = pH of solution; format: physicochemical; conditions: for pH of 1 percent aqueous solution: 1 percent solution (Example 26 as dihydrochloride, Example 32 as such, others as hydrochloride)
[3] = solubility in water or aqueous acid; conditions: for solubility: water
[4] = solubility in 95 percent ethyl alcohol; conditions: for solubility: 95% ethanol, organic solvent or mixture
[5] = precipitation on diluting ethyl alcohol solution with four volumes of water; format: physicochemical; conditions: 5 percent (w/v) solution in 95 percent ethyl alcohol
[6] = tested on: maximal electroshock seizures; test: anti-maximal electroshock seizure test in mice; format: in vivo
Description: The preferred species of this invention, i.e. the compounds having in free base form Formula II, are useful as analgesic agents administered orally or parenterally to humans. […] In the anti-maximal electroshock seizure test, the compounds were administered intraperitoneally or perorally 30 or 90 minutes prior to the application of 50 milliamperes of alternating current through corneal electrodes. Shock duration was 0.3 second. The criterion for anticonvulsant activity was the absence of the tonic hind leg extensor component of the seizure. In the anti-maximal pentylenetetrazol seizure test, the compounds were given intraperitoneally 30 or 90 minutes prior to the rapid intravenous injection of 50 mg. per kg. of pentylenetetrazol. Failure to display tonic hind leg extensor seizures was again the criterion for drug action. Representative results, expressed as ED50 (mg./kg.), which were obtained with my new compounds in these two tests are as follows: […]

[7] = precipitation on gradual pH adjustment of the aqueous solution; format: physicochemical; conditions: for pH at which a precipitate formed: addition of N/10 sodium hydroxide solution to aqueous solution of hydrochloride; for precipitation on adjusting to pH 7.0: 1 percent solution
[8] = tested on: mice; test: inclined screen test in mice (skeletal muscle relaxation); format: in vivo; conditions: 100 mg./kg. subcutaneously, mice
[9] = tested on: humans; test: analgesic use in humans; format: in vivo
Description: For example, administered orally, the effective dosage of the racemic cis form of this compound in humans has been determined to be about 0.1 to 0.5 mg. of drug per kg. of body weight per day, at 5-25 mg. per dose; preferably about 0.2 to 0.4 mg./kg./day, for instance a total of […] at 20 mg./dose.

[10] = one entry spanning PO 30' and 90'

## CC1[C@@H]2Cc3ccccc3[C@@]1(C)CCN2CC1CCC1 (mixture of isomers) [Example 4, racemic 1,2,3,4,5,6-hexahydro-3-cyclobutylmethyl-cis-6,11-dimethyl-2,6-methano-3-benzazocine]
[1]; IP, 30', 30 min
  Anti-Maximal Pentylenetetrazol ED50: 13.2 ± 3 mg/kg
[1]; IP, 90', 90 min
  Anti-Maximal Pentylenetetrazol ED50: 26.2 ± 8.1 mg/kg
[1]; PO, 30'
  Anti-Maximal Pentylenetetrazol ED50: INACT.
[1]; PO, 90', 90 min
  Anti-Maximal Pentylenetetrazol ED50: 25.8 ± 7 mg/kg
[2]; hydrochloride, 5 percent (w/v) in 95 percent ethyl alcohol, then diluted
  pH of ethyl alcohol solution diluted with four volumes of water: 6.1
[3]; hydrochloride
  solubility of hydrochloride in water: less than 0.25%
[4]
  solubility of hydrochloride in 95 percent ethyl alcohol: 5 percent (w/v)
[5]
  precipitation on dilution with four volumes of water: no precipitate formed
[6]; IP, 30', 30 min
  Anti-Maximal Electroshock ED50: 30.5 ± 5.8 mg/kg
[6]; IP, 90'
  Anti-Maximal Electroshock ED50: INACT.
[6]; [10]
  Anti-Maximal Electroshock ED50: inact.

## C[C@@H]1[C@H]2Cc3ccccc3[C@]1(C)CCN2CC1CC1 (relative stereo) [Example 2, racemic 1,2,3,4,5,6-hexahydro-3-cyclopropylmethyl-trans-6,11-dimethyl-2,6-methano-3-benzazocine]
[3]
  solubility: < 2.5 mg/mL
[4]
  solubility: < 10 mg/mL

## CC[C@]12CCN(CC3CC3)[C@H](Cc3ccccc31)[C@@H]2C (relative stereo) [Example 3, 1,2,3,4,5,6-hexahydro-3-cyclopropylmethyl-cis-(6-ethyl-11-methyl)-2,6-methano-3-benzazocine]
[7]
  pH at which a precipitate formed: 6.5
[2]
  pH of 1 percent aqueous solution: 5.6
[3]
  solubility: 200 mg/mL (≈ 742 mM)

## C[C@H]1[C@H]2Cc3ccccc3[C@]1(C)CCN2CC1CC(C)(C)C1 (relative stereo) [Example 5, racemic 1,2,3,4,5,6-hexahydro-3-(3,3-dimethylcyclobutylmethyl)-cis-6,11-dimethyl-2,6-methano-3-benzazocine]
[7]
  pH at which a precipitate formed: 6.8
[2]; hydrochloride, 0.5 percent
  pH of 0.5 percent aqueous solution: 6.8
[3]
  solubility: 5 mg/mL (≈ 16.8 mM)
[4]
  solubility: 50 mg/mL (≈ 168 mM)
[5]
  precipitation on dilution with four volumes of water: a precipitate formed

## C[C@H]1[C@H]2Cc3ccccc3[C@]1(C)CCN2CC1CCCC1 (relative stereo) [Example 6, racemic 1,2,3,4,5,6-hexahydro-3-cyclopentylmethyl-cis-6,11-dimethyl-2,6-methano-3-benzazocine]
[1]; 0.5 h, IP, 30'
  ED50: 11.7 ± 2 mg/kg
[1]; 1.5 h, IP, 90'
  ED50: 8 ± 3 mg/kg
[1]; [10]
  Anti-Maximal Pentylenetetrazol ED50: INACTIVE
[7]
  pH at which a precipitate formed: 6.3
[2]
  pH of 1 percent aqueous solution: 6.2
[3]
  solubility: 10 mg/mL (≈ 35.3 mM)
[6]; one entry spanning PO and IP, 30' and 90'
  Anti-Maximal Electroshock ED50: INACTIVE

## CC(C)=CCN1CC[C@@]2(C)c3ccccc3C[C@@H]1[C@@H]2C (relative stereo) [Example 10, racemic 1,2,3,4,5,6-hexahydro-3-(3-methyl-2-butenyl)-cis-6,11-dimethyl-2,6-methano-3-benzazocine]
[7]; N/10 sodium hydroxide solution
  precipitation on adjusting to pH 7.0: no precipitate was formed
[2]
  pH of 1 percent aqueous solution: 6.1
[3]
  solubility: 200 mg/mL (≈ 742 mM)

## C[C@H]1[C@H]2Cc3ccccc3[C@]1(C)CCN2CCC(=O)O (relative stereo) [Example 24, racemic 1,2,3,4,5,6-hexahydro-3-(2-carboxyethyl)-cis-6,11-dimethyl-2,6-methano-3-benzazocine hydrochloride]
[7]; N/10 sodium hydroxide solution
  precipitation on adjusting to pH 7.0: no precipitate formed
[2]
  pH of 1 percent aqueous solution: 3.0
[3]
  solubility: 100 mg/mL

## C[C@H]1[C@H]2Cc3ccccc3[C@]1(C)CCN2CCCN (relative stereo) [Example 26, racemic 1,2,3,4,5,6-hexahydro-3-(3-aminopropyl)-cis-6,11-dimethyl-2,6-methano-3-benzazocine]
[7]; N/10 sodium hydroxide solution
  precipitation on adjusting to pH 7.0: no precipitate was formed
[2]
  pH of 1 percent aqueous solution: 6.6
[3]
  solubility: 200 mg/mL (≈ 774 mM)

## C[C@H]1[C@H]2Cc3ccccc3[C@]1(C)CCN2CCc1c[nH]c2ccccc12 (relative stereo) [Example 30, racemic 1,2,3,4,5,6-hexahydro-3-[2-(3-indolyl)ethyl]-cis-6,11-dimethyl-2,6-methano-3-benzazocine]
[3]
  solubility: < 2.5 mg/mL
[4]
  solubility of hydrochloride in 95 percent ethyl alcohol: less than one

## CCCCNC(=O)N1CC[C@@]2(C)c3ccccc3C[C@@H]1[C@@H]2C (relative stereo) [Example 32, racemic 1,2,3,4,5,6-hexahydro-3-(n-butylcarbamyl)-cis-6,11-dimethyl-2,6-methano-3-benzazocine]
[7]; N/10 hydrochloric acid solution
  precipitation on adjusting to pH 7.0: no precipitate was formed
[2]
  pH of 1 percent aqueous solution: 9.2
[3]
  solubility: 200 mg/mL (≈ 666 mM)

## C[C@H]1[C@H]2Cc3ccccc3[C@]1(C)CCN2C(=O)c1cccnc1 (relative stereo) [Example 34, racemic 1,2,3,4,5,6-hexahydro-3-nicotinoyl-cis-6,11-dimethyl-2,6-methano-3-benzazocine]
[7]
  pH at which a precipitate formed: 3.0
[2]
  pH of 1 percent aqueous solution: 2.7
[3]
  solubility: 200 mg/mL (≈ 653 mM)

## C[C@H]1[C@H]2Cc3ccccc3[C@]1(C)CCN2Cc1cncn1C (relative stereo) [Example 37, racemic 1,2,3,4,5,6-hexahydro-3-(1-methylimidazol-5-yl)methyl-cis-6,11-dimethyl-2,6-methano-3-benzazocine]
[8]
  side-effect in the inclined screen test: CNS stimulation
[8]; 30 or 60 minutes
  skeletal muscle relaxant activity in the inclined screen test: active
[3]
  solubility: < 2.5 mg/mL
[4]
  solubility: 50 mg/mL (≈ 169 mM)
[5]
  precipitation on dilution with four volumes of water: precipitated

## COC(CN1CC[C@@]2(C)c3ccccc3C[C@@H]1[C@@H]2C)OC (relative stereo) [Example 39, racemic 1,2,3,4,5,6-hexahydro-3-(2,2-dimethoxyethyl)cis-6,11-dimethyl-2,6-methano-3-benzazocine]
[7]; N/10 sodium hydroxide solution
  precipitation on adjusting to pH 7.0: no precipitate formed
[2]
  pH of 1 percent aqueous solution: 5.9
[3]
  solubility: 200 mg/mL (≈ 691 mM)

## CC[C@H]1[C@H]2Cc3ccccc3[C@]1(C)CCN2C (relative stereo) [racemic 1,2,3,4,5,6-hexahydro-3-methyl-cis-(6-methyl-11-ethyl)-2,6-methano-3-benzazocine]
[7]; N/10 sodium hydroxide solution
  precipitation on adjusting to pH 7.0: no precipitate formed
[2]
  pH of 1 percent aqueous solution: 6.7
[3]
  solubility: 50 mg/mL (≈ 218 mM)

## CC1C2Cc3ccc(O)cc3C1(C)CCN2CC1CC1 (stereo not drawn) [1,2,3,4,5,6-hexahydro-3-cyclopropylmethyl-8-hydroxy-6,11-dimethyl-2,6-methano-3-benzazocine, reference compound]
[9]; analgesically effective doses
  psychotomimetic effects in humans: significant incidence of psychotomimetic effects
[9]; humans
  analgesic activity in humans: potent analgesic

## C[C@H]1[C@H]2Cc3ccccc3[C@]1(C)CCN2CC1CCCO1 (stereo partly drawn) [Example 28, 1,2,3,4,5,6-hexahydro-3-(tetrahydro-2-furylmethyl)-cis-6,11-dimethyl-2,6-methano-3-benzazocine]
[3]
  solubility: < 2.5 mg/mL
[4]
  solubility: 50 mg/mL (≈ 175 mM)
